The values that follow come from ChEMBL document CHEMBL1149378, “Naphthofuroquinone derivatives: inhibition of receptor tyrosine kinases” (Bioorg Med Chem Lett, 2006).

Experiment [1] addresses T1, Fibroblast growth factor receptor 1 (Homo sapiens, UniProt P11362). In words: Inhibitory activity against FGFR1 kinase at 20 uM.
Target sequence in this assay (P11362 22-822 limits assumed): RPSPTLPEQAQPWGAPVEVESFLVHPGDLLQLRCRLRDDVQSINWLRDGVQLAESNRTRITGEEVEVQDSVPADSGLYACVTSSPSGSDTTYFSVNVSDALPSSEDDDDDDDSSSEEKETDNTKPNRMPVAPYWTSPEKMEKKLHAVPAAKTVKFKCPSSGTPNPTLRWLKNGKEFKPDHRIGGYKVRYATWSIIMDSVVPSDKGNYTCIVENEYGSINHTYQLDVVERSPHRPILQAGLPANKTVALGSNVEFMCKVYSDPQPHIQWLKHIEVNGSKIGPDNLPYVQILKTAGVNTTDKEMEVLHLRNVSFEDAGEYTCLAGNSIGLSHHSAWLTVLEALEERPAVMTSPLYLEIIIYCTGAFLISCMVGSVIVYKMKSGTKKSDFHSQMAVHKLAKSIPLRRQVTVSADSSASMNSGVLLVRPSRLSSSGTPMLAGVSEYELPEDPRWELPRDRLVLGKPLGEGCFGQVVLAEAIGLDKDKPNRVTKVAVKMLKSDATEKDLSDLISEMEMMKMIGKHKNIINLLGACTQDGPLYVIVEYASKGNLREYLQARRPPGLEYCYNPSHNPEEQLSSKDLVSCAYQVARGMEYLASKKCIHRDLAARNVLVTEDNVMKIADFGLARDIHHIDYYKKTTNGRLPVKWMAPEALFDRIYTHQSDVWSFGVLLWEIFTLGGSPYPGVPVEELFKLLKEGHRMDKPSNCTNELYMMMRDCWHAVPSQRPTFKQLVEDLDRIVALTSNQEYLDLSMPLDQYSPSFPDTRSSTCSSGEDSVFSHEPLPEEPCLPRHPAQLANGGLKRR
Experiment [2] has as its target T2, Platelet-derived growth factor receptor beta (Homo sapiens, UniProt P09619). In words: Inhibitory activity against PDGFRbeta kinase at 20 uM.
Experiment [3] has as its target T3, Vascular endothelial growth factor receptor 2 (Homo sapiens, UniProt P35968). As to the kind of experiment: Inhibitory activity against VEGFR2 kinase at 20 uM.
The target of experiment [4] is T4, Epidermal growth factor receptor (Homo sapiens, UniProt P00533). The note with it: 20 uM.
Description: Inhibitory activity against EGFR kinase at 20 uM
Experiment [5] addresses T4, Epidermal growth factor receptor. In words: Inhibitory activity against EGFR kinase.
Experiment [6] addresses T2, Platelet-derived growth factor receptor beta. As to the kind of experiment: Inhibitory activity against PDGFRbeta kinase.
Experiment [7] deals with T1, Fibroblast growth factor receptor 1. As to the kind of experiment: Inhibitory activity against FGFR1 kinase.
Target sequence in this assay (P11362 whole entry): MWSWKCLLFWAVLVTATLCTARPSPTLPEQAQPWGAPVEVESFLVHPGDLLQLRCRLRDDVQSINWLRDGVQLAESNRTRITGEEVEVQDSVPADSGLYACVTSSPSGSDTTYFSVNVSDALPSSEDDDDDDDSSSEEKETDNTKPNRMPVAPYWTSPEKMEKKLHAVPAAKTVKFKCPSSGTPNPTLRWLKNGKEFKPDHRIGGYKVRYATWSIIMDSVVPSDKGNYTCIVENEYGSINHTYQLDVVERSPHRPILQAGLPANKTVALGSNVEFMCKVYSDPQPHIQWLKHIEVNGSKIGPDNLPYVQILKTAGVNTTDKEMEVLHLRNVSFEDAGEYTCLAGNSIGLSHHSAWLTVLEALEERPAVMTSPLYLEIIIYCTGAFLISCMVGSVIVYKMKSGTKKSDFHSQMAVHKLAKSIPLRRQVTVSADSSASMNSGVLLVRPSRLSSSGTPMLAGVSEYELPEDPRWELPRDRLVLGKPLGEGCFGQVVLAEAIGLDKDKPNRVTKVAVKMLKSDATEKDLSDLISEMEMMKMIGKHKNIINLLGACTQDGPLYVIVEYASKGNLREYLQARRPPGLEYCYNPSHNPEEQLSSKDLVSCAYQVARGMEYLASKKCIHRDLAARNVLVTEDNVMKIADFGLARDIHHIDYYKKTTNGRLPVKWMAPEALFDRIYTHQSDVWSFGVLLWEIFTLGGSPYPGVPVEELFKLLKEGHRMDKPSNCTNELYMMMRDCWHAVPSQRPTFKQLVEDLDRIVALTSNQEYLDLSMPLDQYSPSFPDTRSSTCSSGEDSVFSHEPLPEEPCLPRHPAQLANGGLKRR
In experiment [8] the target is T3, Vascular endothelial growth factor receptor 2. In words: Inhibitory activity against VEGFR2 kinase.
The target of experiment [9] is T4, Epidermal growth factor receptor. As to the kind of experiment: Inhibition of MEK2 phosphorylation in EGF-treated A431 cells at 1 uM. The note with it: A-431. The class given is functional, cell-based.
Experiment [10] relates to HUVEC. As to the kind of experiment: Inhibition of HUVEC tube formation at 10 uM. The class given is functional, cell-based. To be noted: Homo sapiens.
Experiment [11] concerns the target T4, Epidermal growth factor receptor. In words: Inhibition of ERK1 phosphorylation in EGF-treated A431 cells at 1 uM. The class given is functional, cell-based. To be noted: A-431.
A further experiment deals with A-431. In words: Cytotoxicity against epidermoid carcinoma A431 cell line. The class given is functional, cell-based. To be noted: Homo sapiens.
Experiment [12] addresses T4, Epidermal growth factor receptor. In words: Inhibition of MEK1 phosphorylation in EGF-treated A431 cells at 1 uM. The note with it: A-431. The class given is functional, cell-based.
For experiment [13] the target is unchanged. In words: Intracellular inhibition of autophosphorylation of EGFR in A431 cells. The class given is functional, cell-based. The note with it: A-431.
For experiment [14] the target is unchanged. In words: Inhibition of ERK2 phosphorylation in EGF-treated A431 cells at 1 uM. The class given is functional, cell-based. The note with it: A-431.
The test system of experiment [15] is HUVEC. As to the kind of experiment: Inhibition of HUVEC tube formation at 2 uM. The class given is functional, cell-based. To be noted: Homo sapiens.

pIC50: −log10 of the molar value. Calls of active or inactive are those of the source. No cut-off for these calls is given here.

T3 sequence (P35968 whole entry): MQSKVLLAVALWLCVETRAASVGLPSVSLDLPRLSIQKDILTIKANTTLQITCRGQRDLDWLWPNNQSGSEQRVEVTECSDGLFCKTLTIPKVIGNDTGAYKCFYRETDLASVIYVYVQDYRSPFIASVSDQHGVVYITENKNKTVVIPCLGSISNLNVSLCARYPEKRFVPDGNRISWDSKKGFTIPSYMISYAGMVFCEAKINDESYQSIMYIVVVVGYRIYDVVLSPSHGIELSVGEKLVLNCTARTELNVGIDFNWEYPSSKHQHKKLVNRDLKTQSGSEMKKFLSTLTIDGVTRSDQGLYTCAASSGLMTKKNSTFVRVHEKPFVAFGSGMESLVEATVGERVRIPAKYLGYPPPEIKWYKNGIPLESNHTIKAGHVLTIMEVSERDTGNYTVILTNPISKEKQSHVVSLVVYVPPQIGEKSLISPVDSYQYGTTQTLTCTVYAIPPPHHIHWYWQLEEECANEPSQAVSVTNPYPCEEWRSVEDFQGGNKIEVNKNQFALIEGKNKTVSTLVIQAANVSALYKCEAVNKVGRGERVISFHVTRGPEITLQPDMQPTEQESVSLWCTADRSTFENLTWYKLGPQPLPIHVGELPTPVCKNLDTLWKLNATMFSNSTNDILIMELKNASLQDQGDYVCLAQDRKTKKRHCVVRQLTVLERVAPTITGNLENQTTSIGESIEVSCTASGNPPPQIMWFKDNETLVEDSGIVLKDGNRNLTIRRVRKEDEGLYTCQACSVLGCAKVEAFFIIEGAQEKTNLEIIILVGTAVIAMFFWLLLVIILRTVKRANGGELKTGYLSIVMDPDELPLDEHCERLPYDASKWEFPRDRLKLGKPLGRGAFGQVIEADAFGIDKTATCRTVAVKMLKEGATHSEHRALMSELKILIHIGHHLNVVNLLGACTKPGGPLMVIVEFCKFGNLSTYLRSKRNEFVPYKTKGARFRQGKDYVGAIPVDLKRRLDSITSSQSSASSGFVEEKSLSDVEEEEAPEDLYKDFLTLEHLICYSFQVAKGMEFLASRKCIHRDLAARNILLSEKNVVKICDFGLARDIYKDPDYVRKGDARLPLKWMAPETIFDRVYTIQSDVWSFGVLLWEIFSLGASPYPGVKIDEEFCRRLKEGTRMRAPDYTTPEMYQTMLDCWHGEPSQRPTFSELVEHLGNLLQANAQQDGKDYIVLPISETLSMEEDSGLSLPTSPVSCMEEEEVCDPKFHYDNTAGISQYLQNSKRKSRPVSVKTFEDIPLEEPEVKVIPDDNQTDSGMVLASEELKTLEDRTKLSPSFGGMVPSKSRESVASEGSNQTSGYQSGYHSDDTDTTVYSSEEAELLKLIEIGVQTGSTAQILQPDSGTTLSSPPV
T2 sequence (P09619 whole entry): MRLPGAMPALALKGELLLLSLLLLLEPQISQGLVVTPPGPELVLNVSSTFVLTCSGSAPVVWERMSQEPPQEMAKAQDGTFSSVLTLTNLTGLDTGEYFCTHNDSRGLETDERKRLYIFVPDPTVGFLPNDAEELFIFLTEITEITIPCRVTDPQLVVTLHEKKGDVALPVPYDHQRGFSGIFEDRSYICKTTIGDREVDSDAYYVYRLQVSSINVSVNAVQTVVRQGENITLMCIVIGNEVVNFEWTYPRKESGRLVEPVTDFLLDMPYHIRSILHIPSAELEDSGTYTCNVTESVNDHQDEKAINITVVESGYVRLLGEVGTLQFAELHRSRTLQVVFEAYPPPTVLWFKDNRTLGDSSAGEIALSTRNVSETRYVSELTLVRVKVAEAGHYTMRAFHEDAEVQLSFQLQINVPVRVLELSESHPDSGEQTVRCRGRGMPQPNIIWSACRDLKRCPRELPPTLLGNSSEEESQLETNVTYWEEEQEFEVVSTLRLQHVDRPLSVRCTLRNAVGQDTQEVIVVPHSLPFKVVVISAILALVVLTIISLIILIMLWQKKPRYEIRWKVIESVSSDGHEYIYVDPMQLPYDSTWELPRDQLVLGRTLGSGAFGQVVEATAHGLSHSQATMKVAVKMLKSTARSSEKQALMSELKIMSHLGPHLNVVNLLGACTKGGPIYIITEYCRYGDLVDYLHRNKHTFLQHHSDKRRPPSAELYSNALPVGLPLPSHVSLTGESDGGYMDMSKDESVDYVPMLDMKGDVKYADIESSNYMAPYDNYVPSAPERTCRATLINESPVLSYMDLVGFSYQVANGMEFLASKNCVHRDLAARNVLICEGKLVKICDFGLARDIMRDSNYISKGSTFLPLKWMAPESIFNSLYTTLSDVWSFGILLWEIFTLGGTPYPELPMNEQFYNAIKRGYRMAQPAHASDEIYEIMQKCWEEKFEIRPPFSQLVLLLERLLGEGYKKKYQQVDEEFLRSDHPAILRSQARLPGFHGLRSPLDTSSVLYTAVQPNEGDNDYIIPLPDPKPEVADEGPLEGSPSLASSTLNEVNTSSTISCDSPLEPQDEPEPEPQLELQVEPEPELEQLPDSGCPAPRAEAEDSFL

Consider `COC(=O)c1c(OCCN2CCOCC2)c2ccccc2c2oc3c(c12)C(=O)c1ccccc1C3=O`, for which the inhibition was found to be 41.4% in experiment [1], 46.2% in [2], 40.7% in experiment [3] and 67.9% in experiment [4].
In the case of `COC(=O)c1c(OCCCN2CCN(c3ccccc3Cl)CC2)c2ccccc2c2oc3c(c12)C(=O)c1ccccc1C3=O`, the inhibition was determined as 55.5% in experiment [1], 68.9% in experiment [2], 62.1% in experiment [3] and 68.3% in [4].
Take `COC(=O)c1c(OC)c2ccccc2c2oc3c(c12)C(=O)c1ccccc1C3=O`: the inhibition is 10.5% in experiment [1], 12.7% in experiment [2], -0.8% in [3] and 16.7% in [4]. Further, the pIC50 in experiment [5] was 4.90; in experiment [6], less than 4.30; in [7] it was less than 4.30.
On to `COC(=O)c1c(OCCN2CCCCC2)c2ccccc2c2oc3c(c12)C(=O)c1ccccc1C3=O`, for which the inhibition stood at 79.1% in [1], 89.8% in experiment [2], 81.7% in experiment [3] and 84.3% in [4]. The pIC50 in experiment [8] was 5.34; in the experiment with A-431, 5.37; in experiment [5], 5.55; in [6], 5.26; in [7] it was 5.15. Further, the result (in experiment [9]; in the experiment on HUVEC [10]; in experiment [11]; in [12]; in experiment [13]; in [14]) was Active.
As for `COC(=O)c1c(OCCCN(C)C)c2ccccc2c2oc3c(c12)C(=O)c1ccccc1C3=O`, the inhibition in experiment [1] was 51.2%; in [2], 57.2%; in experiment [3], 57.5%; in [4], 72.4%. Besides, the pIC50 is 4.81 in experiment [8], 4.87 in experiment [5], 4.99 in experiment [6] and 4.42 in experiment [7].
In the case of `COC(=O)c1c(OCCN2CCCC2)c2ccccc2c2oc3c(c12)C(=O)c1ccccc1C3=O`, the inhibition is 65.2% in experiment [1], 95.5% in experiment [2], 86.5% in [3] and 77.1% in experiment [4]. Moreover, the pIC50 in experiment [8] was 5.26; in the experiment with A-431 it was 5.96; in [5], 5.05; in [6], 5.06; in [7] it was 4.62.
For `COC(=O)c1c(OCc2ccc(OC)cc2)c2ccccc2c2oc3c(c12)C(=O)c1ccccc1C3=O`, the inhibition came to 46% in [1], 69.4% in [2], 48.3% in experiment [3] and 72.6% in [4].
As for `COC(=O)c1c(OCCN(C)C)c2ccccc2c2oc3c(c12)C(=O)c1ccccc1C3=O`, the inhibition in [1] is 51%; in experiment [2], 56.5%; in [3], 57.1%; in experiment [4], 71%. The pIC50 is 4.89 in experiment [8]; 5.96 in the experiment on A-431; 4.51 in experiment [5]; 5.12 in experiment [6]; 4.63 in [7]. Moreover, the result with HUVEC [10] and in the experiment on HUVEC [15] was Active.
Consider `COC(=O)c1c(OCCN2CCN(Cc3ccc(C(F)(F)F)cc3)CC2)c2ccccc2c2oc3c(c12)C(=O)c1ccccc1C3=O`, for which the inhibition in experiment [1] is 48.2%; in experiment [2], 52%; in experiment [3], 43.3%; in [4], 47.5%.
In the case of `CCCOc1c(C(=O)OC)c2c3c(oc2c2ccccc12)C(=O)c1ccccc1C3=O`, the inhibition in [1] is 2.4%; in [2], 5.7%; in [3], -2.1%; in experiment [4], 38.7%. Moreover, the pIC50 in [5], in experiment [6] and in [7] was less than 4.30 in each case.
In the case of `COC(=O)c1c(OCc2ccc(C(=O)OC(C)(C)C)cc2)c2ccccc2c2oc3c(c12)C(=O)c1ccccc1C3=O`, the inhibition in experiment [1] turned out to be 50.8%; in experiment [2] it was 62.2%; in [3], 52.2%; in experiment [4], 57.1%.
For `COC(=O)c1c(OCc2ccncc2)c2ccccc2c2oc3c(c12)C(=O)c1ccccc1C3=O`, the inhibition in experiment [1] amounted to 2.6%; in [2] it was 2.9%; in experiment [3] it was 3.1%; in experiment [4], 19.4%.
In the same order, the values of `COC(=O)c1c(O)c2ccccc2c2oc3c(c12)C(=O)c1ccccc1C3=O` are 12.6%, 2.8%, 16% and 21.4%.
On to `CCN(CC)CCOc1c(C(=O)OC)c2c3c(oc2c2ccccc12)C(=O)c1ccccc1C3=O`, for which the inhibition in experiment [1] is 61.1%; in experiment [2], 64.1%; in experiment [3] it was 60.4%; in [4], 82.1%. Also, the pIC50 was 4.90 in experiment [8]; 5.77 in the experiment with A-431; 5.29 in experiment [5]; 4.80 in experiment [6]; 5.06 in experiment [7]. Further, the outcome (in the experiment on HUVEC [10]; in [13]) was Active.
Take `COC(=O)c1c(OC(C)=O)c2ccccc2c2oc3c(c12)C(=O)c1ccccc1C3=O`: the inhibition was -8.1% in experiment [1], -0.3% in experiment [2] and 21.6% in [4].
As to `N#CC(C#N)=C(N)/C(C#N)=C/c1cc(O)c(O)c(O)c1` [TYRPHOSTIN 51], the inhibition in experiment [1] turned out to be 93%; in experiment [2] it was 82%; in [3] it was 88%; in experiment [4] it was 90%. Besides, the pIC50 is 5.37 in experiment [8], 5.39 in [5], 5.55 in experiment [6] and 5.31 in experiment [7].
Turning to `COC(=O)c1c(OCc2ccc(C(F)(F)F)cc2)c2ccccc2c2oc3c(c12)C(=O)c1ccccc1C3=O`, the inhibition was found to be 44.5% in experiment [1], 51.5% in experiment [2], 40.9% in experiment [3] and 33.6% in experiment [4].

The inhibition is the drop in the measured response relative to a control, in per cent. One may read the pIC50 as the negative decadic logarithm of the IC50, by convention in mol/L. High values mean a small IC50, low ones a large IC50.
